Reference: patent US20150113683A1, “METHODS FOR PLANT TRANSFORMATION USING SPECTINOMYCIN SELECTION” (Monsanto Technology LLC, priority 2007, published 2015)
Several values for one entry are separate records, joined by “and”; a condition that tells them apart may be missing. Equal entries are not always repeated.

What was measured:
soybean explants [1] = experiment: Explants on different levels of spectinomycin: GUS-expressing buds and shoots; assay type: cell-based, soybean (Glycine max); settings: for % explants with GUS+ shoots/buds / # Explants with GUS+ shoots/buds: 2 mg/L TDZ in co-culture; for # Explants with GUS+ shoots/buds: 25 explants assayed
[2] = test system: dry excised soybean explants; experiment: Dry soybean embryos, spectinomycin, whole regenerated explant with pre-culturing step: TF and event quality; assay type: cell-based; settings: for % quality events: 1-2 copies of GUS and aadA by Invader assay; for # Events produced / TF % / qTF %: spectinomycin 150 ppm; for Estimated mTF %: marker-free TF, events without the marker gene
soybean explants [3] = experiment: Transformation frequency using spectinomycin selection at different levels; assay type: cell-based, soybean (Glycine max)
[4] = test system: 3 months stored dry soybean explants; experiment: Stored dry soybean explants, spectinomycin, pre-culture: TF; assay type: cell-based; settings: pMON107379
Source text: TDZ and lipoic acid were both added to the inoculum and to the co-culture media (INO). The construct, pMON107379, was a conventional 2T vector comprising oriRi and aadA gene, and co-culture was done for 5 days.

dry soybean explants [5] = experiment: Dry soybean embryos, spectinomycin, liquid culture medium: TF with hydration conditions and liquid overlay timing; assay type: cell-based; settings: spectinomycin 150 ppm
Source text: In these studies, explants were initially hydrated and eventually regenerated on WPM solid media with liquid overlay or WPM liquid medium as above. […] In liquid overlay treatment both solid and liquid culture media were used; liquid medium was dispensed over the top of explants as they were lying on solid medium at a specified time during tissue culture as identified in the Table 30. This was done as a type of media refreshment and avoids the need for transferring explants from old media to new media. In the control treatments, explants were surface plated on a solid WPM medium (Table 2).

dry soybean explants [6] = experiment: Transformation frequency of dry soybean explants using glyphosate or spectinomycin as selective agent; assay type: cell-based; settings: for % TF: dry soybean explants
[7] = Total over all Spec levels of the experiment (1102: 25-250 mg/L; 1119: 50-250 mg/L)
[8] = first study, spectinomycin selection 25-250 mg/L

CN[C@@H]1[C@H](O)[C@H](NC)[C@H]2O[C@@]3(O)C(=O)C[C@@H](C)O[C@H]3O[C@@H]2[C@H]1O [Spectinomycin, spectinomycin]
% explants with GUS+ shoots/buds (soybean explants [1]; spectinomycin level 25 (mg/L)): 52%
# Explants with GUS+ shoots/buds (soybean explants [1]; spectinomycin level 25 (mg/L)): 13
% explants with GUS+ shoots/buds (soybean explants [1]; spectinomycin level 50): 72%
# Explants with GUS+ shoots/buds (soybean explants [1]; spectinomycin level 50): 18
% explants with GUS+ shoots/buds (soybean explants [1]; spectinomycin level 100): 76%
# Explants with GUS+ shoots/buds (soybean explants [1]; spectinomycin level 100): 19
% explants with GUS+ shoots/buds (soybean explants [1]; spectinomycin level 150): 72%
# Explants with GUS+ shoots/buds (soybean explants [1]; spectinomycin level 150): 18
% explants with GUS+ shoots/buds (soybean explants [1]; spectinomycin level 200): 80%
# Explants with GUS+ shoots/buds (soybean explants [1]; spectinomycin level 200): 20
% explants with GUS+ shoots/buds (soybean explants [1]; spectinomycin level 250): 80%
# Explants with GUS+ shoots/buds (soybean explants [1]; spectinomycin level 250): 20
explants that developed GUS-positive buds and shoots (soybean explants [1]; within two weeks on selective medium, about 22 DAI, TDZ-treated explants): Up to 80%
% quality events ([2]; Dry Excised - 2T/OriRi, 14 events assayed): 28.6%
# Events produced ([2]; Dry Excised - 2T/OriRi, 161 explants): 15
Estimated mTF % ([2]; Dry Excised - 2T/OriRi): 0.45%
TF % ([2]; Dry Excised - 2T/OriRi): 9.32 +/− 7.38%
qTF % ([2]; Dry Excised - 2T/OriRi): 2.5%
% quality events ([2]; Dry Excised - 2T/OriV, 32 events assayed): 21.9%
# Events produced ([2]; Dry Excised - 2T/OriV, 260 explants): 34
Estimated mTF % ([2]; Dry Excised - 2T/OriV): 0.62%
TF % ([2]; Dry Excised - 2T/OriV): 13.1 +/− 0.17%
qTF % ([2]; Dry Excised - 2T/OriV): 2.7 +/− 0.23%
% quality events ([2]; Pre-cultured Dry - 2T/OriRi, 64 events assayed): 20.3%
# Events produced ([2]; Pre-cultured Dry - 2T/OriRi, 336 explants, pre-culture 5 days 23° C. dark in BGM): 66
Estimated mTF % ([2]; Pre-cultured Dry - 2T/OriRi): 0.7%
TF % ([2]; Pre-cultured Dry - 2T/OriRi, pre-culture 5 days 23° C. dark in BGM): 19.64 +/− 1.97%
qTF % ([2]; Pre-cultured Dry - 2T/OriRi): 3.9 +/− 1.22%
% quality events ([2]; Pre-cultured Dry - 2T/OriV, 311 events assayed): 24.4%
# Events produced ([2]; Pre-cultured Dry - 2T/OriV, 1641 explants, pre-culture 5 days 23° C. dark in BGM): 319
Estimated mTF % ([2]; Pre-cultured Dry - 2T/OriV): 1.1%
TF % ([2]; Pre-cultured Dry - 2T/OriV, pre-culture 5 days 23° C. dark in BGM): 19.4 +/− 5.42%
qTF % ([2]; Pre-cultured Dry - 2T/OriV): 4.6 +/− 1.35%
% TF (transformation frequency) (soybean explants [3]; Spec level 25 mg/L): 19%
Plants tested for transformation, Total (soybean explants [3]; Spec level 25 mg/L): 19
Shoots harvested, % SF (shoot frequency) (soybean explants [3]; Spec level 25 mg/L): 46%
Shoots harvested, Total (soybean explants [3]; Spec level 25 mg/L): 46
% TF (transformation frequency) (soybean explants [3]; Spec level 50 mg/L): 14.7% and 22.2%
Plants tested for transformation, Total (soybean explants [3]; Spec level 50 mg/L): 88 and 48
Shoots harvested, % SF (shoot frequency) (soybean explants [3]; Spec level 50 mg/L): 24.8% and 46.8%
Shoots harvested, Total (soybean explants [3]; Spec level 50 mg/L): 149 and 101
% TF (transformation frequency) (soybean explants [3]; Spec level 100 mg/L): 15.7% and 12.6%
Shoots harvested, % SF (shoot frequency) (soybean explants [3]; Spec level 100 mg/L): 20.5% and 20.6%
% TF (transformation frequency) (soybean explants [3]; Spec level 150 mg/L): 26.1% and 18.3%
Shoots harvested, % SF (shoot frequency) (soybean explants [3]; Spec level 150 mg/L): 35.1% and 20.8%
% TF (transformation frequency) (soybean explants [3]; Spec level 200 mg/L): 14.4% and 12.5%
Shoots harvested, % SF (shoot frequency) (soybean explants [3]; Spec level 200 mg/L): 28.2% and 15.2%
Shoots harvested, Total (soybean explants [3]; Spec level 200 mg/L): 53 and 91
% TF (transformation frequency) (soybean explants [3]; Spec level 250 mg/L): 19.5% and 16.3%
Shoots harvested, % SF (shoot frequency) (soybean explants [3]; Spec level 250 mg/L): 27.5% and 18.0%
Shoots harvested, Total (soybean explants [3]; Spec level 250 mg/L): 55 and 108
% TF (transformation frequency) (soybean explants [3]; [7]): 18.6% and 15.5%
Shoots harvested, % SF (shoot frequency) (soybean explants [3]; [7]): 33.3% and 19.9%
Shoots harvested, Total (soybean explants [3]; [7]): 330 and 596
average transformation frequency (soybean explants [3]; [8]): 18.6%
transformation frequency, range (soybean explants [3]; [8]): 12.6-26.1%
plants later shown to be transformed (soybean explants [3]; of the first 32 plants tested to confirm transformation, one escape): 31
R0 plants ([4]; Fresh Dry Explants, no pre-culture step, 375 explants): 24
TF ([4]; Fresh Dry Explants, no pre-culture step): 6.40%
R0 plants ([4]; Fresh Dry Explants, pre-culture step 5 days 23° C. dark in BGM, 1008 explants): 112
TF ([4]; Fresh Dry Explants, pre-culture step 5 days 23° C. dark in BGM): 11.11%
R0 plants ([4]; Stored Dry Explants (3 months), no pre-culture step, 678 explants): 71
TF ([4]; Stored Dry Explants (3 months), no pre-culture step): 10.47%
R0 plants ([4]; Stored Dry Explants (3 months), pre-culture step 5 days 23° C. dark in BGM, 901 explants): 129
TF ([4]; Stored Dry Explants (3 months), pre-culture step 5 days 23° C. dark in BGM): 14.32%
R0 plants ([4]; Wet Excised explants, no pre-culture step, 263 explants): 75
TF ([4]; Wet Excised explants, no pre-culture step): 28.52%
TF % (mean of 3 repeats) (dry soybean explants [5]; Treatment 1-Control, hydration medium INO, incubation with Agrobacteria 0 minutes, surface plated on solid WPM): 3.10%
TF % (mean of 3 repeats) (dry soybean explants [5]; Treatment 2, hydration medium BGM w/o cefotaxime, incubation with Agrobacteria 0 minutes): 14.67%
TF % (mean of repeats) (dry soybean explants [5]; Treatment 2, no liquid overlay, Oasis Wedge transfer for regeneration): 14.67%
TF % (mean of 3 repeats) (dry soybean explants [5]; Treatment 3, hydration medium BGM w/o cefotaxime, incubation with Agrobacteria 15 minutes): 15.45%
TF % (mean of repeats) (dry soybean explants [5]; Treatment 3, liquid overlay 3 weeks post inoculation, 5 mLs on solid WPM, Oasis Wedge transfer): 15.45%
TF % (mean of 3 repeats) (dry soybean explants [5]; Treatment 4, hydration medium BGM w/o cefotaxime, incubation with Agrobacteria 30 minutes): 18.50%
TF % (mean of repeats) (dry soybean explants [5]; Treatment 4, liquid overlay 3 weeks post inoculation, 10 mLs on solid WPM, Oasis Wedge transfer): 18.50%
TF % (mean of 3 repeats) (dry soybean explants [5]; Treatment 5, hydration medium INO, incubation with Agrobacteria 0 minutes): 13.98%
TF % (mean of repeats) (dry soybean explants [5]; Treatment 5, liquid overlay 4 weeks post inoculation, 5 mLs on solid WPM, Oasis Wedge transfer): 13.98%
TF % (mean of 3 repeats) (dry soybean explants [5]; Treatment 6, hydration medium INO, incubation with Agrobacteria 15 minutes): 9.64%
TF % (mean of repeats) (dry soybean explants [5]; Treatment 6, liquid overlay 4 weeks post inoculation, 10 mLs on solid WPM, Oasis Wedge transfer): 9.64%
TF % (mean of 3 repeats) (dry soybean explants [5]; Treatment 7, hydration medium INO, incubation with Agrobacteria 30 minutes): 13.79%
TF % (mean of repeats) (dry soybean explants [5]; Treatment Control-1, liquid overlay NA, overlay volume None, no Oasis Wedge transfer): 8.00%
transformation frequencies (dry soybean explants [6]; 150 ppm spectinomycin, dry excised soybean embryos, 1 hr hydration in INO, 4 days co-culture, two different studies): 25.05% and 19.27%
% TF (dry soybean explants [6]; Spectinomycin 25 ppm in regeneration medium): 4.66%
% TF (dry soybean explants [6]; Spectinomycin 50 ppm in regeneration medium): 4.24%
% TF (dry soybean explants [6]; Spectinomycin 100 ppm in regeneration medium): 6.34%
% TF (dry soybean explants [6]; Spectinomycin 200 ppm in regeneration medium): 5.99%
